# Patent publication US12459922B2 (Gilead Sciences, Inc., priority 2022, dated 2025)
# Tested on: endogenous cellular STAT1 (phosphorylated at Tyr701) in NCI-H1373 cells
# Assay: Phospho-STAT1 (Tyr701) LANCE Ultra TR-FRET Detection Assay
# Type: cell-based
# Conditions: Homo sapiens, NCI-H1373, 48 h, phospho-STAT1 (Tyr701) induction, read-out: NH1373 pSTAT1 EC50
row,Structure (SMILES),EC50 [nM]
1,"COc1cnc(-c2cc3ccn(CCC[C@H](C)Nc4cn[nH]c(=O)c4C(F)(F)F)c(=O)c3c(F)c2F)nc1N [Example 109, 6-(4-amino-5-methoxy-pyrimidin-2-yl)-7,8-difluoro-2-[(4S)-4-[[6-oxo-5-(trifluoromethyl)-1H-pyridazin-4-yl]amino]pentyl]isoquinolin-1-one]",8.59
2,"O=c1[nH]ncc(N[C@@H](CO)CCCn2ccc3cc(-c4ncc(C(F)(F)F)cn4)c(F)cc3c2=O)c1C(F)(F)F [Example 88, 7-fluoro-2-[(4R)-5-hydroxy-4-[[6-oxo-5-(trifluoromethyl)-1H-pyridazin-4-yl]amino]pentyl]-6-[5-(trifluoromethyl)pyrimidin-2-yl]isoquinolin-1-one]",86.2
3,"CC[C@@H](CCCn1ccc2cc(-c3ncc(C(F)(F)F)c(N)n3)c(F)cc2c1=O)Nc1cn[nH]c(=O)c1C(F)(F)F [Example 71, 6-[4-amino-5-(trifluoromethyl)pyrimidin-2-yl]-7-fluoro-2-[(4S)-4-[[6-oxo-5-(trifluoromethyl)-1H-pyridazin-4-yl]amino]hexyl]isoquinolin-1-one]",5.94
4,"O=c1[nH]ncc(N[C@H](CCCn2cnc3cc(-c4nc5ccccn5n4)c(F)cc3c2=O)COC(F)F)c1C(F)(F)F [Example 490, (R)-7-([1,2,4]triazolo[1,5-a]pyridin-2-yl)-3-(5-(difluoromethoxy)-4-((6-oxo-5-(trifluoromethyl)-1,6-dihydropyridazin-4-yl)amino)pentyl)-6-fluoroquinazolin-4(3H)-one]",1
5,"C[C@@H](CCCn1ccc2cc(-c3nc(N)c(C(F)(F)F)cc3C#N)c(F)cc2c1=O)Nc1cn[nH]c(=O)c1C(F)(F)F [Example 290, (S)-6-amino-2-(7-fluoro-1-oxo-2-(4-((6-oxo-5-(trifluoromethyl)-1,6-dihydropyridazin-4-yl)amino)pentyl)-1,2-dihydroisoquinolin-6-yl)-5-(trifluoromethyl)nicotinonitrile]",21.3
6,"CC[C@@H](CCCn1ccc2cc(-c3cnc(C(F)(F)F)c(N)n3)c(F)c(F)c2c1=O)Nc1cn[nH]c(=O)c1C(F)(F)F [Example 362, (S)-6-(6-amino-5-(trifluoromethyl)pyrazin-2-yl)-7,8-difluoro-2-(4-((6-oxo-5-(trifluoromethyl)-1,6-dihydropyridazin-4-yl)amino)hexyl)isoquinolin-1(2H)-one]",15.7
7,"C[C@@H](CCCn1cnc2cc(-c3ncc(F)c(N)n3)c(F)cc2c1=O)Nc1cn[nH]c(=O)c1C(F)(F)F [Example 67, 7-(4-amino-5-fluoro-pyrimidin-2-yl)-6-fluoro-3-[(4S)-4-[[6-oxo-5-(trifluoromethyl)-1H-pyridazin-4-yl]amino]pentyl]quinazolin-4-one]",218
8,"O=c1[nH]ncc(N2C[C@@H](F)C[C@H]2CCCn2ccc3cc(-c4ncc(C(F)(F)F)cn4)c(F)cc3c2=O)c1C(F)(F)F [Example 141, 7-fluoro-2-[3-[(2R,4S)-4-fluoro-1-[6-oxo-5-(trifluoromethyl)-1H-pyridazin-4-yl]pyrrolidin-2-yl]propyl]-6-[5-(trifluoromethyl)pyrimidin-2-yl]isoquinolin-1-one]",16.2
9,"COc1cnc(-c2cc3ccn(C[C@@H]4CCC[C@H](Nc5cn[nH]c(=O)c5C(F)(F)F)C4)c(=O)c3c(F)c2F)nc1N [Example 278, 6-(4-amino-5-methoxypyrimidin-2-yl)-7,8-difluoro-2-(((1R,3S)-3-((6-oxo-5-(trifluoromethyl)-1,6-dihydropyridazin-4-yl)amino)cyclohexyl)methyl)isoquinolin-1(2H)-one]",4.38
10,"O=c1[nH]ncc(N[C@H]2CCC[C@@H](Cn3ccc4cc(-c5ncc(OCCO)cn5)c(F)cc4c3=O)C2)c1C(F)(F)F [Example 495, 7-fluoro-6-[5-(2-hydroxyethoxy)pyrimidin-2-yl]-2-[[(1R,3S)-3-[[6-oxo-5-(trifluoromethyl)-1H-pyridazin-4-yl]amino]cyclohexyl]methyl]isoquinolin-1-one]",29
11,"Nc1nc(-c2cc3ncn(CCC[C@@H](Nc4cn[nH]c(=O)c4C(F)(F)F)C4CC4)c(=O)c3cc2F)ncc1OC(F)F [Example 472, 7-[4-amino-5-(difluoromethoxy)pyrimidin-2-yl]-3-[(4R)-4-cyclopropyl-4-[[6-oxo-5-(trifluoromethyl)-1H-pyridazin-4-yl]amino]butyl]-6-fluoro-quinazolin-4-one]",51.6
12,"C[C@@H](CCCn1ccc2cc(-c3ncc(C(F)(F)F)c(N4CC(C)(O)C4)n3)c(F)cc2c1=O)Nc1cn[nH]c(=O)c1C(F)(F)F [Example 191, (S)-7-fluoro-6-(4-(3-hydroxy-3-methylazetidin-1-yl)-5-(trifluoromethyl)pyrimidin-2-yl)-2-(4-((6-oxo-5-(trifluoromethyl)-1,6-dihydropyridazin-4-yl)amino)pentyl)isoquinolin-1(2H)-one]",26.9
13,"O=c1[nH]ncc(N[C@H]2CCC[C@@H]2CCn2cnc3cc(-c4ncc(C(F)(F)F)cn4)c(F)cc3c2=O)c1C(F)(F)F [Example 463, 6-fluoro-3-(2-((1R,2S)-2-((6-oxo-5-(trifluoromethyl)-1,6-dihydropyridazin-4-yl)amino)cyclopentyl)ethyl)-7-(5-(trifluoromethyl)pyrimidin-2-yl)quinazolin-4(3H)-one]",9.47
14,"[2H]C([2H])([2H])OC[C@@H](CCCn1ccc2cc(-c3ncc(C(F)(F)F)cn3)c(F)cc2c1=O)Nc1cn[nH]c(=O)c1C(F)(F)F [Example 181, (R)-7-fluoro-2-(5-(methoxy-d3)-4-((6-oxo-5-(trifluoromethyl)-1,6-dihydropyridazin-4-yl)amino)pentyl)-6-(5-(trifluoromethyl)pyrimidin-2-yl)isoquinolin-1(2H)-one]",14.2
15,"Nc1nc(-c2cc3ccn(CC[C@H]4CCC[C@@H]4Nc4cn[nH]c(=O)c4C(F)(F)F)c(=O)c3cc2F)ncc1C(F)(F)F [Example 178, 6-(4-amino-5-(trifluoromethyl)pyrimidin-2-yl)-7-fluoro-2-(2-((1R,2S)-2-((6-oxo-5-(trifluoromethyl)-1,6-dihydropyridazin-4-yl)amino)cyclopentyl)ethyl)isoquinolin-1(2H)-one]",1.8
16,"O=c1[nH]ncc(N[C@H]2CCC[C@@H](Cn3ccc4cc(-c5ccc(Cl)cn5)c(F)cc4c3=O)C2)c1C(F)(F)F [Example 280, 6-(5-chloropyridin-2-yl)-7-fluoro-2-(((1R,3S)-3-((6-oxo-5-(trifluoromethyl)-1,6-dihydropyridazin-4-yl)amino)cyclohexyl)methyl)isoquinolin-1(2H)-one]",34.8
17,"Nc1nc(-c2cc3ccn(Cc4cccc(Nc5cn[nH]c(=O)c5C(F)(F)F)c4)c(=O)c3cc2F)ncc1C(F)(F)F [Example 438, 6-(4-amino-5-(trifluoromethyl)pyrimidin-2-yl)-7-fluoro-2-(3-((6-oxo-5-(trifluoromethyl)-1,6-dihydropyridazin-4-yl)amino)benzyl)isoquinolin-1(2H)-one]",23.1
18,"O=c1[nH]ncc(N[C@H]2CCC[C@@H](Cn3ccc4cc(-c5ncc(Cl)cn5)c(F)c(F)c4c3=O)C2)c1C(F)(F)F [Example 246, 6-(5-chloropyrimidin-2-yl)-7,8-difluoro-2-(((1R,3S)-3-((6-oxo-5-(trifluoromethyl)-1,6-dihydropyridazin-4-yl)amino)cyclohexyl)methyl)isoquinolin-1(2H)-one]",3.78
19,"C[C@@H](CCCn1ccc2cc(-c3nc(N)ncc3C(F)F)c(F)c(F)c2c1=O)Nc1cn[nH]c(=O)c1C(F)(F)F [Example 114, 6-[2-amino-5-(difluoromethyl)pyrimidin-4-yl]-7,8-difluoro-2-[(4S)-4-[[6-oxo-5-(trifluoromethyl)-1H-pyridazin-4-yl]amino]pentyl]isoquinolin-1-one]",852
20,"Nc1nc(-c2cc3ncn(CCC[C@H](COC(F)F)Nc4cn[nH]c(=O)c4C(F)(F)F)c(=O)c3cc2F)cnc1C(F)(F)F [Example 419, (R)-7-(6-amino-5-(trifluoromethyl)pyrazin-2-yl)-3-(5-(difluoromethoxy)-4-((6-oxo-5-(trifluoromethyl)-1,6-dihydropyridazin-4-yl)amino)pentyl)-6-fluoroquinazolin-4(3H)-one]",14.2
21,"CC[C@@H](CCCn1ccc2cc(-c3ncc(C(F)F)cn3)c(F)c(F)c2c1=O)Nc1cn[nH]c(=O)c1C(F)(F)F [Example 355, (S)-6-(5-(difluoromethyl)pyrimidin-2-yl)-7,8-difluoro-2-(4-((6-oxo-5-(trifluoromethyl)-1,6-dihydropyridazin-4-yl)amino)hexyl)isoquinolin-1(2H)-one]",11.4
22,"C[C@@H](CCCn1ccc2cc(-c3ncc(F)c(N)n3)c(F)cc2c1=O)Nc1cn[nH]c(=O)c1C(F)(F)F [Example 103, 6-(4-amino-5-fluoro-pyrimidin-2-yl)-7-fluoro-2-[(4S)-4-[[6-oxo-5-(trifluoromethyl)-1H-pyridazin-4-yl]amino]pentyl]isoquinolin-1-one]",39.8
23,"CC[C@@H](CCCn1ccc2cc(-c3ncc(OC)c(N)n3)c(F)c(F)c2c1=O)Nc1cn[nH]c(=O)c1C(F)(F)F [Example 350, (S)-6-(4-amino-5-methoxypyrimidin-2-yl)-7,8-difluoro-2-(4-((6-oxo-5-(trifluoromethyl)-1,6-dihydropyridazin-4-yl)amino)hexyl)isoquinolin-1(2H)-one]",15.1
24,"C[C@@H](CCCn1ccc2cc(-c3nc4cc(F)ccn4n3)c(F)cc2c1=O)Nc1cn[nH]c(=O)c1C(F)(F)F [Example 335, (S)-7-fluoro-6-(7-fluoro-[1,2,4]triazolo[1,5-a]pyridin-2-yl)-2-(4-((6-oxo-5-(trifluoromethyl)-1,6-dihydropyridazin-4-yl)amino)pentyl)isoquinolin-1(2H)-one]",5.57
25,"CC[C@@H](CCCn1cnc2cc(-c3ncc(OC(F)F)c(N)n3)c(F)cc2c1=O)Nc1cn[nH]c(=O)c1C(F)(F)F [Example 364, (S)-7-(4-amino-5-(difluoromethoxy)pyrimidin-2-yl)-6-fluoro-3-(4-((6-oxo-5-(trifluoromethyl)-1,6-dihydropyridazin-4-yl)amino)hexyl)quinazolin-4(3H)-one]",96.4
